Patent US20110251135A1, “INHIBITORS OF PERITONEAL SEEDING OF CANCER CELLS” (University of Utah Research Foundation, priority 2008, published 2011)
Values joined by “and” are separate entries in the source; they are usually repeats but may differ in a detail not shown here. Equal entries are not always repeated.

Legend:
NF-κB = NF-κB electrophoretic mobility shift assay (EMSA), nuclear lysates of treated HT-29 cells; assay type: cell-based, human; details: 10 μM, 3 and 6 hour incubations
[1] = test system: transiently suspended Caco-2 cells; test: Apoptosis of transiently suspended cells during readhesion (annexin V assay); assay type: cell-based, human; details: Caco-2 transiently suspended, treated and allowed to readhere
Description: Single cell suspensions were plated at 100,000 cells per well in 24-well plates in media containing DMSO, BAY 11-7082, BAY 11-7085, or MG-132 for 8-24 hours in an incubator. Alternatively, DMSO, BAY 11-7082, BAY 11-7085, or MG-132 were added to cells that were confluent and adherent for several days. The nonadherent cells were aspirated off with the media and spun for 3 minutes at 2,000 rpm in 15 mL polypropylene tubes. The adherent cells were washed twice with PBS, dispersed in trypsin, and spun down for 3 minutes at 2,000 rpm in 15 mL polypropylene tubes. […] 400 μL of binding buffer was added to each tube and the cells were analyzed by flow cytometry immediately. The percent of apoptosis was determined as the percent of annexin V-positive, propidium iodide-negative cells of the total cells counted.
Since trypsin can activate protease-activated receptor-2 in colon cancer cell lines, which then results in increased cell proliferation, (Darmoul et al., “Initiation of human colon cancer cell proliferation by trypsin acting at protease-activated receptor-2,” Br J Cancer 85:772-9, 2001). NF-κB activation was determined in adherent and confluent DLD-1, HCT-116, Caco-2 and HT-29 cells that were removed from plastic dishes by trypsin or scraping.

HT-29 cells = test: Intraabdominal seeding model, intraperitoneal injection of colon cancer cells into athymic mice (21 days); assay type: in vivo, mouse; details: HT-29 IP in athymic mice, BAY 11-7085 (1 mg/kg) IP 24 hours earlier, then twice weekly, n = 6
Description: (§1) FIG. 6 is a group of photographs showing an intraabdominal seeding model. FIGS. 6A, B, C show tumor implants of the liver of three athymic mice 21 days after receiving intraperitoneal injections of HT-29 cells. The mice were pretreated and treated for a total of 21 days with DMSO twice weekly. […] The mouse was pretreated and treated for a total of 21 days with DMSO twice weekly. FIG. 6E is a micrograph showing tumor invasion through the liver capsule. This section was obtained from the tumor implant from the mouse in FIG. 6A. […] FIG. 6G, (liver), FIG. 6H, (abdominal wall), and FIG. 6I, (intestinal) show tumor implants in three athymic mice 21 days after receiving intraabdominal injections of HCT-116 cells. All of the mice were treated with 5 mg/kg of BAY 11-7085 twice weekly.
(§2) HT-29 and HCT-116 cells were harvested in 0.25% trypsin-PBS-EDTA, washed once in media and PBS, and resuspended in PBS at 1 million cells per 200 μL. […] Subcutaneous tumor sizes were determined by measuring the length and width with calipers. […]
(§3) During colorectal cancer surgery, seeding of the peritoneal cavity by tumor cells with tumor cell implantation of the peritoneal surfaces can occur. Seeding results from the transient suspension of cancer cells, through a loss of adhesion either naturally ro because of surgical displacement, followed by readhesion to other tissues. […]

HCT-116 cells = test: as above; assay type: in vivo, mouse; details: HCT-116 IP in athymic mice; after 21 days; regardless of vehicle or BAY 11-7085
Description: as §1, §2, §3

NF-κB in HT-29 cells = test: NF-κB ELISA during readhesion; assay type: cell-based, human; details: colon and pancreatic cancer readhesion
Description: Untreated adherent monolayers (Control) and Jurkat cells treated with TNFα (Jurkat Control) served as controls. The cells were collected and analyzed for NF-κB activation in an ELISA (see Methods). […] The floating and readherent cells were collected and lysed. Aliquots of the cell lysates were used to generate cleaved PARP immunoblots. All lanes contain equal total protein concentrations and the actin blot served as a loading control. The blots shown are typical of duplicate experiments. […] The floating cells were washed away and the adherent cells were then fixed and stained with crystal violet. The cells were lysed in deoxycholate and the intensity of the staining quantified by spectrophotometry. The results are normalized to the controls.
Nuclear lysates were generated, normalized for total protein concentration, and used to determine NF-κB activity in an ELISA kit (Panomics) per the manufacturer's instructions.

CC(C)(C)c1ccc(S(=O)(=O)/C=C/C#N)cc1 [BAY 11-7085, (2E)-3-[4-(tertiarybutylphenyl)sulfonyl]-2-propenenitrile]
inhibition of NF-κB activity (EMSA) (NF-κB): more profound inhibition of NF-κB activity
BAY 11-7085-induced apoptosis during readhesion [1]: moderate increase
Liver Metastases (mice with metastases/n) (HT-29 cells): none of the 6 and 0/6
Peritoneal Metastases (mice with metastases/n) (HT-29 cells): 2 of 6 and 2/6
metastases of parietal and visceral peritoneum (HCT-116 cells): clear evidence of metastases
NF-κB inhibitor potency on a molar basis (comparison) (NF-κB in HT-29 cells): more potent NF-κB inhibitor than rosiglitazone
